How the values were obtained:
[1] = calcein dye release assay (lytic potential); type: biochemical; conditions: 5-100 μM, 1-20 mol % ligand; LUVs containing 120 mM calcein
Description: Calix[4]arene tetrabutylamide 2 may transport ions across LUVs by inducing membrane defects, by uniport of ions, or via cotransport of ion pairs ([…], M^− or OH^−/A^− antiport and H^+/A^− or M^+/OH^− symport mechanisms are possible). The lytic potential of 2 was evaluated using a dye release assay. The self-quenching dye calcein loses 95% of its fluorescence emission at concentrations above 100 mM. 2.
EYPC Calcein-Containing Vesicles: Calcein (224.1 mg, 0.36 mmol) was suspended in 3 mL of phosphate buffer (100 mM NaCl, 10 mM sodium phosphate, pH 6.4). The pH of the solution was adjusted to 6.4 with a 7.4 M NaOH-containing phosphate buffer, at which point all the calcein was dissolved to give a 120 mM solution of the dye. The molality of the extravesicular buffer was adjusted to equal that of the calcein-containing solution with 1 m NaCl. Osmomolality was determined by VPO. A thin film was prepared from 60 mg of EYPC ([…]) as described above. The lipid film was hydrated in 1.2 mL of the calcein buffer. During hydration, the suspension was submitted to five freeze-thaw cycles (dry ice in acetone, water at room temperature) and then submitted to high-pressure extrusion (2) extrusions through a 0.1 μm polycarbonate membrane afforded LUVs with an average diameter of 100 nm). […]

[2] = voltage-clamp experiments on black lipid membranes; type: biochemical
Description: FIG. 10(A) represents current events across a BLM in voltage clamp experiments after application of calixarene tetrabutylamide 2 ([…]). The voltage applied was −20 mV for all three recordings. (B) The distribution of conductance ranges observed in voltage clamp experiments with 2 acting as an ion channel.
The voltage-clamp assay was conducted using a setup with two chambers, each filled with an electrolyte solution and separated by a BLM. After voltage was applied across the membrane, a solution of 2 was added to one of the chambers. Subsequent current across the membrane was attributed to ion transport mediated by 2, since control experiments wit DMSO solvent were negative. The abrupt changes in current intensity (events) are consistent with an ion channel mechanism. The relatively long-lasting open states indicate that channels formed by calixarene tetrabutylamide 2 are stable.
Voltage-Clamp Experiments. […] Once calixarene tetrabutylamide 2 was incorporated into the lipid, the current through the membrane was recorded using both a chart recorder and directly digitized and stored as a computer file. The conductance values were calculated by dividing the current by the applied voltage. The events were grouped into conductance ranges of equal magnitude for the purpose of showing the distribution of recorded conductances.

[3] = tested on: HEK-293 cells; experiment: patch-clamp recordings in whole-cell configuration; type: cell-based
Description: FIG. 11 illustrates voltage clamp recordings in whole cell configuration (HEK-293 cells). (A) Current across membrane after application of calixarene tetrabutylamide 2 at different voltages. From bottom to top, trace denotes currents at −120, −80, −40, 0, 40, 80 and 120 mV, respectively, with saline physiological buffer being used (B) Current across membrane in a sodium glutamate isosmotic-buffer at different voltages. The potential was varied over a range of −120 through +120 mV, with a 40 mV step. (C) Current across membrane in Na2SO4 isosmotic buffer at different voltages. The potential was varied over a range of −120 through +120 mV, with a 40 mV steps. (D) Current across the membrane at +120 mV in application/wash cycle traces from bottom to top denote current in absence of 2, current after first application of 2 (a), following by […] lavage, second application (b), and third application (c). Trace on top denotes current after lavage without application of 2. Baselines of the first and last traces shifted for clarity, saline physiological buffer used.
Electrophysiological Recordings. Patch-Clamp Experiments. HEK 293 cells, plated in […] dishes containing 10 mL of the growth media were maintained at 37° C. with 5% CO2 in the incubator. Growth medium for HEK 293 cells was minimum essential medium supplemented with 10% fetal bovine serum, 100 U mL penicillin and 100 μg/mL streptomycin. Electrophysiological recordings were performed in the whole-cell configuration of the patch-clamp technique using a DAGAN 8900 amplifier (Dagan Corp., Minneapolis, Minn.). The patch electrodes, pulled from borosilicate class capillaries, had resistance of 3-4 MΩ when filled with internal solution containing (in mM): CsCl 110: tetraethylammonium chloride, 20; MgATP. 5:EGTA. 14: HEPES, 20 and titrated to pH 7.4 with CsOH. Approximately 90% of electrode resistance was compensated electronically, so that effective series resistance was less than 1 MΩ. HEK cells were used for experiments 2 to 4 days after plating the cells on the cover sips. Generation of the voltage-clamp protocols and data acquisition were carried out using PCLAMP software (Axon instruments, Inc., Burlingame, Calif.). Sampling frequency was 0.5-2.0 kHz, and current signals were filtered at […] before digitization and storage. All experiments were performed at room temperature (23-25° C.). […] Cells plated on plastic cover slips 915 mm round thermanox, Nunc, Inc., Napierville, Ill.) were transferred to an experimental chamber mounted on the stage of an inverted microscope (Diaphot, Nikon, Nagano, Japan) and were bathed in a solution containing (in mM):NaCl, 137:CaCl2, 2; KCl. 5.4; HEPES, 10; glucose, 10:glucose, 10; MgCl2, 1 (pH 7.4 adjusted with NaOH). The experimental chamber was constantly perfused at a rate of about 1 mL/min with a control bathing solution. In solutions buffered on the cell under recording KCl was omitted and in some experiments NaCl was replaced by isoosmotic amounts of Na2SO4 or Na glutamate. Servo-controlled miniature solenoid valves were used for rapid switching between control and test solutions (delay in solution change was <20 ms). Compound 2 was dissolved in DMSO, and DMSO was added in an equal amount to the control and test solutions.

## CCCCNC(=O)COc1c2cccc1Cc1cccc(c1OCC(=O)NCCCC)Cc1cccc(c1OCC(=O)NCCCC)Cc1cccc(c1OCC(=O)NCCCC)C2 [calix[4]arene tetrabutylamide 2, Calix[4]arene tetrabutylamide]
[1]
  calcein fluorescence (membrane defects): no fluorescence enhancement
[2]
  stability of the channels (open states): stable
[2]; 480 events, 1 M KCl
  centre of the conductance distribution: ~100 pS
[3]; +120 mV
  lavage time after which the current returned to the baseline: 1.5 min
[3]; NaCl buffer
  cells that responded at +80 mV: 3 of 15
[3]; application/wash cycle
  damage to the cell membrane: did not damage the cell membrane
[3]; extracellular application, NaCl buffer
  holding potential at which current across the cell membrane was caused: +120 mV
[3]; holding potentials between −120 and +120 mV
  current in isosmotic Na glutamate or Na2SO4 buffer: no current across the membrane

— patent US7355074B2, “Compounds having aromatic rings and side-chain amide-functionality and a method for transporting monovalent anions across biological membranes using the same” (The University of Maryland, priority 2003, dated 2008)
